# Target: USP14 (Homo sapiens (Human), UniProt P54578)
# Experiment: Usp14 inhibition assay (Example 57B, B-series compounds)
# Format: biochemical
# Details: IC50 class; average value from a minimum of two experimental determinations
# Excerpt: Example 57B: Usp14 Inhibition Assay
# The IC50 values in the Table below represent the average value from a minimum of two experimental determinations.
# Sequence of USP14 (P54578 whole entry, looked up): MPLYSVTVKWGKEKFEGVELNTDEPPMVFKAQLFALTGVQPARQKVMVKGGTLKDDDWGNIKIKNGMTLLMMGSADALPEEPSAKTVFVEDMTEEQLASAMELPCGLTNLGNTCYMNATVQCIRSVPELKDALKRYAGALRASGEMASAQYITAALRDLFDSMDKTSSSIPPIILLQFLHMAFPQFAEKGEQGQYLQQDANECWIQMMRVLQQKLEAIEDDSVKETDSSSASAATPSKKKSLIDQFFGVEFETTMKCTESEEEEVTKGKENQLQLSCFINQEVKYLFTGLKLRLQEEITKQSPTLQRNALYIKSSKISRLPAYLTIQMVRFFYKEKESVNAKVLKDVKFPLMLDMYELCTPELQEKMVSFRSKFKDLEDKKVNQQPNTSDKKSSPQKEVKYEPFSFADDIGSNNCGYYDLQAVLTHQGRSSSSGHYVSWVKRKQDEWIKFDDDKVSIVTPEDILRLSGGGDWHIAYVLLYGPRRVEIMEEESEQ
row,Structure (SMILES),IC50
1,"Cc1c(C(=O)CN2C3CCC2[C@@H](O)C3)cc(/C=C/CC2CC(C)(C)OC2=O)n1-c1ccc(C#N)cc1 (mixture of isomers) [Example 52B, (±)-4-(5-((E)-3-(5,5-Dimethyl-2-oxotetrahydrofuran-3-yl)prop-1-en-1-yl)-3-(2-((1S,2S,4R)-2-hydroxy-7-azabicyclo[2.2.1]heptan-7-yl)acetyl)-2-methyl-1H-pyrrol-1-yl)benzonitrile]",< 50 nM
2,"Cc1c(C(=O)CN2C3CCC2[C@@H](O)C3)cc(C(F)(F)F)n1-c1ccc(C#N)cc1 (mixture of isomers) [Example 109B, (±)-4-(3-(2-((2R)-2-Hydroxy-7-azabicyclo[2.2.1]heptan-7-yl)acetyl)-2-methyl-5-(trifluoromethyl)-1H-pyrrol-1-yl)benzonitrile]",50 to 500 nM
3,"Cc1cc(C(=O)CN2[C@@H]3CC[C@H]2[C@@H](C)[C@@H]3C)c(C)n1-c1ccc(C#N)cc1 (racemic) [Example 140B, (±)-4-(3-(2-((1R,2R,3R,4S)-2,3-Dimethyl-7-azabicyclo[2.2.1]heptan-7-yl)acetyl)-2,5-dimethyl-1H-pyrrol-1-yl)benzonitrile]",50 to 500 nM
4,"Cc1c(C(=O)CN2C3CCC2[C@@H](O)C3)cc(CCC2COC2)n1-c1ccc(C#N)cc1 (mixture of isomers) [Example 43B, (±)-4-(3-(2-((2R)-2-Hydroxy-7-azabicyclo[2.2.1]heptan-7-yl)acetyl)-2-methyl-5-(2-(oxetan-3-yl)ethyl)-1H-pyrrol-1-yl)benzonitrile]",< 50 nM
5,"Cc1cc(C(=O)CN2[C@@H]3CC[C@H]2[C@H]2CCO[C@H]23)c(C)n1-c1ccc(C#N)cc1 (racemic) [Example 139B, (±)-4-(2,5-Dimethyl-3-(2-((3aR,4S,7R,7aR)-octahydro-4,7-epiminobenzofuran-8-yl)acetyl)-1H-pyrrol-1-yl)benzonitrile]",> 500 nM
6,"Cc1c(C(=O)CN2C3CCC2[C@@H](O)C3)cc(CCC2CCOCC2)n1-c1ccc(C#N)cc1 (mixture of isomers) [Example 9B, (±)-4-(3-(2-((2R)-2-Hydroxy-7-azabicyclo[2.2.1]heptan-7-yl)acetyl)-2-methyl-5-(2-(tetrahydro-2H-pyran-4-yl)ethyl)-1H-pyrrol-1-yl)benzonitrile]",< 50 nM
7,"Cc1c(C(=O)CN2C3CC4CC2CC(C3)O4)cc(C#CCCC#N)n1-c1ccc(C#N)cc1 [Example 21B, 4-(3-(2-((1r,3r,5r,7r)-2-Oxa-6-azaadamantan-6-yl)acetyl)-5-(4-cyanobut-1-yn-1-yl)-2-methyl-1H-pyrrol-1-yl)benzonitrile]",50 to 500 nM
8,"CCC(C)c1cc(C(=O)CN2C3CCC2[C@@H](O)C3)c(C)n1-c1ccc(C#N)cc1 (mixture of isomers) [Example 114B, (±)-4-(5-(sec-Butyl)-3-(2-((1R,2R,4S)-2-hydroxy-7-azabicyclo[2.2.1]heptan-7-yl)acetyl)-2-methyl-1H-pyrrol-1-yl)benzonitrile]",50 to 500 nM
9,"Cc1c(C(=O)CN2[C@@H]3CC[C@H]2[C@@H](O)C3)cc(-c2nccs2)n1-c1ccc(C#N)cc1 (racemic) [Example 146B, (±)-4-(3-(2-((1R,2R,4S)-2-Hydroxy-7-azabicyclo[2.2.1]heptan-7-yl)acetyl)-2-methyl-5-(thiazol-2-yl)-1H-pyrrol-1-yl)benzonitrile]",> 500 nM
10,"COC1C[C@H]2CC[C@H](C1)N2CC(=O)c1cc(C)n(-c2ccc(C#N)cc2)c1C (stereo partly drawn) [Example 88B, 4-(3-(2-((1R,3r,5S)-3-Methoxy-8-azabicyclo[3.2.1]octan-8-yl)acetyl)-2,5-dimethyl-1H-pyrrol-1-yl)benzonitrile]",50 to 500 nM
11,"CSCCCCc1cc(C(=O)CN2C3CCC2[C@@H](O)C3)c(C)n1-c1ccc(C#N)cc1 (mixture of isomers) [Example 37B, (±)-4-(3-(2-((2R)-2-Hydroxy-7-azabicyclo[2.2.1]heptan-7-yl)acetyl)-2-methyl-5-(4-(methylthio)butyl)-1H-pyrrol-1-yl)benzonitrile]",< 50 nM
12,"Cc1c(C(=O)CN2[C@@H]3CC[C@H]2[C@@H](O)C3)cc(C2CC(F)(F)C2)n1-c1ccc(C#N)cc1 (racemic) [Example 131B, (±)-4-(5-(3,3-Difluorocyclobutyl)-3-(2-((1R,2R,4S)-2-hydroxy-7-azabicyclo[2.2.1]heptan-7-yl)acetyl)-2-methyl-1H-pyrrol-1-yl)benzonitrile]",50 to 500 nM
13,"Cc1cc(C(=O)CN2C3CC4CC(C3)CC2C4)c(C)n1-c1ccc(C#N)cc1 [Example 80B, 4-(3-(2-((5r,7r)-2-Azaadamantan-2-yl)acetyl)-2,5-dimethyl-1H-pyrrol-1-yl)benzonitrile]",< 50 nM
14,"Cc1c(C(=O)CN2C3CCC2[C@@H](O)C3)cc(/C=C/CN2C(=O)c3ccccc3C2=O)n1-c1ccc(C#N)cc1 (mixture of isomers) [Example 153B, (±)-4-(5-0E)-3-(1,3-Dioxoisoindolin-2-yl)prop-1-en-1-yl)-3-(2-((1R,2R,4S)-2-hydroxy-7-azabicyclo[2.2.1]heptan-7-yl)acetyl)-2-methyl-1H-pyrrol-1-yl)benzonitrile]",< 50 nM
15,"Cc1cc(C(=O)CN2[C@@H]3CC[C@H]2[C@@H](C)C3)c(C)n1-c1ccc(C#N)cc1 (racemic) [Example 100B, (±)-4-(2,5-Dimethyl-3-(2-((1S,2S,4R)-2-methyl-7-azabicyclo[2.2.1]heptan-7-yl)acetyl)-1H-pyrrol-1-yl)benzonitrile]",> 500 nM
16,"Cc1cc(C(=O)CN2C3CCC2CC3)c(C)n1-c1ccc(C#N)cc1 [Example 63B, 4-(3-(2-(7-Azabicyclo[2.2.1]heptan-7-yl)acetyl)-2,5-dimethyl-1H-pyrrol-1-yl)benzonitrile]",> 500 nM
17,"Cc1c(F)c(C(=O)CN2C3CCC2CC3)c(C)n1-c1ccc(C#N)cc1 [Example 104B, 4-(3-(2-((1s,4s)-7-Azabicyclo[2.2.1]heptan-7-yl)acetyl)-4-fluoro-2,5-dimethyl-1H-pyrrol-1-yl)benzonitrile]",50 to 500 nM
18,"Cc1c(C(=O)CN2C3CCC2CC3)cc(C#N)n1-c1ccc(C#N)cc1 [Example 137B, 4-(2-(7-Azabicyclo[2.2.1]heptan-7-yl)acetyl)-1-(4-cyanophenyl)-5-methyl-1H-pyrrole-2-carbonitrile]",< 50 nM
19,"Cc1cc(C(=O)CN2[C@@H]3CC[C@H]2[C@@H](OC(F)(F)F)C3)c(C)n1-c1ccc(C#N)cc1 (racemic) [Example 105B, (±)-4-(2,5-Dimethyl-3-(2-((1R,2R,4S)-2-(trifluoromethoxy)-7-azabicyclo[2.2.1]heptan-7-yl)acetyl)-1H-pyrrol-1-yl)benzonitrile]",> 500 nM
20,"Cc1cc(C(=O)CN2[C@@H]3CC[C@@H]2CC(O)(C(F)(F)F)C3)c(C)n1-c1ccc(C#N)cc1 (stereo partly drawn) [Example 74B, 4-(3-(2-((1R,3r,5S)-3-Hydroxy-3-(trifluoromethyl)-8-azabicyclo[3.2.1]octan-8-yl)acetyl)-2,5-dimethyl-1H-pyrrol-1-yl)benzonitrile]",> 500 nM
21,"Cc1c(C(=O)CN2C3CCC2[C@@H](O)C3)cc(CC2CC(F)(F)C2)n1-c1ccc(C#N)cc1 (mixture of isomers) [Example 135B, (±)-4-(5-((3,3-Difluorocyclobutyl)methyl)-3-(2-((2R)-2-hydroxy-7-azabicyclo[2.2.1]heptan-7-yl)acetyl)-2-methyl-1H-pyrrol-1-yl)benzonitrile]",< 50 nM
22,"Cc1c(C(=O)CN2C3CCC2[C@@H](O)C3)c(C)n(-c2ccc(C#N)cc2)c1C (mixture of isomers) [Example 76B, (±)-4-(3-(2-((2R)-2-Hydroxy-7-azabicyclo[2.2.1]heptan-7-yl)acetyl)-2,4,5-trimethyl-1H-pyrrol-1-yl)benzonitrile]",50 to 500 nM
23,"Cc1c(C(=O)CN2C3CCC2CC3)cc(/C=C/CCS(C)(=O)=O)n1-c1ccc(Cl)cc1 [Example 34B, (E)-2-(7-Azabicyclo[2.2.1]heptan-7-yl)-1-(1-(4-chlorophenyl)-2-methyl-5-(4-(methylsulfonyl)but-1-en-1-yl)-1H-pyrrol-3-yl)ethan-1-one]",< 50 nM
24,"Cc1c(C(=O)CN2C3CCC2C(O)C3)cc([C@H](C)C2CCC2)n1-c1ccc(C#N)cc1 (stereo in doubt) [Example 151B, 4-(5-((R)-1-Cyclobutylethyl)-3-(2-((2R)-2-hydroxy-7-azabicyclo[2.2.1]heptan-7-yl)acetyl)-2-methyl-1H-pyrrol-1-yl)benzonitrile]",> 500 nM
25,"Cc1cc(C(=O)CN2[C@H]3CCC[C@@H]2[C@@H](O)C3)c(C)n1-c1ccc(C#N)cc1 (racemic) [Example 83B, (±)-4-(3-(2-((1S,5R,6S)-6-Hydroxy-8-azabicyclo[3.2.1]octan-8-yl)acetyl)-2,5-dimethyl-1H-pyrrol-1-yl)benzonitrile]",50 to 500 nM
26,"Cc1c(C(=O)CN2C3CCC2CC3)c(C)n(-c2ccc(C#N)cc2)c1-c1ccc(C#N)cc1 [Example 16B, 4,4′-(4-(2-(7-Azabicyclo[2.2.1]heptan-7-yl)acetyl)-3,5-dimethyl-1H-pyrrole-1,2-diyl)dibenzonitrile]",> 500 nM
27,"Cc1c(C(=O)CN2C3CCC2[C@@H](O)C3)cc(Br)n1-c1ccc(C#N)cc1 (mixture of isomers) [Example 119B, (±)-4-(5-Bromo-3-(2-((2R)-2-hydroxy-7-azabicyclo[2.2.1]heptan-7-yl)acetyl)-2-methyl-1H-pyrrol-1-yl)benzonitrile]",50 to 500 nM
28,"Cc1c(C(=O)CN2C3CCC2[C@@H](O)C3)cc(COCCC#N)n1-c1ccc(C#N)cc1 (mixture of isomers) [Example 5B, (±)-4-(5-((2-Cyanoethoxy)methyl)-3-(2-((2R)-2-hydroxy-7-azabicyclo[2.2.1]heptan-7-yl)acetyl)-2-methyl-1H-pyrrol-1-yl)benzonitrile]",> 500 nM
29,"Cc1c(C(=O)CN2[C@@H]3CC[C@H]2[C@@H](O)C3)cc(C(C)C)n1-c1ccc(C#N)cc1 (racemic) [Example 112B, (±)-4-(3-(2-((1R,2R,4S)-2-Hydroxy-7-azabicyclo[2.2.1]heptan-7-yl)acetyl)-5-isopropyl-2-methyl-1H-pyrrol-1-yl)benzonitrile]",50 to 500 nM
30,"Cc1cc(C(=O)CN2C3CCC2[C@@H](O)C3)c(C)n1-c1cc(F)c(C#N)c(F)c1 (mixture of isomers) [Example 94B, (±)-2,6-Difluoro-4-(3-(2-((2R)-2-hydroxy-7-azabicyclo[2.2.1]heptan-7-yl)acetyl)-2,5-dimethyl-1H-pyrrol-1-yl)benzonitrile]",50 to 500 nM

# Source: US11560385B2, “Proteasome activity enhancing compounds” (Proteostasis Therapeutics, Inc., priority 2018, dated 2023)
